Test results as given in PMC8497791 (Frontiers in Pharmacology, 2021).
Each block holds one molecule with its values, some of them ahead of it.

How the values were obtained:
[1] = test system: PC9-LUC brain metastatic tumor; assay: Mouse brain metastasis xenograft (intracranial PC9-LUC); type: in vivo, BALB/c nude mice; conditions: for growth of intracranial tumors (bioluminescence) / body weight of mice: 10 and 25 mg/kg once daily
[2] = test system: PC9-LUC spinal cord metastases; assay: Mouse spinal cord metastasis model (PC9-LUC); type: in vivo, nude mice; conditions: for biofluorescence signal of intracranial and spinal cord tumors: vs control
ABCB1 = molecular target: T1, ABCB1 (Homo sapiens, UniProt P08183); assay: Bidirectional transport across ABCB1-MDCK monolayers; type: in vitro ADME; conditions: for ABCB1 transporter substrate assessment: criterion ER >2, ABCB1-MDCK vs MDCK
T1 construct: expressed in transfected cells; host or cells: MDCK (canine kidney) cells transduced with lentivirus from pLVX-CMV-ABCB1
T1 sequence (P08183 whole entry): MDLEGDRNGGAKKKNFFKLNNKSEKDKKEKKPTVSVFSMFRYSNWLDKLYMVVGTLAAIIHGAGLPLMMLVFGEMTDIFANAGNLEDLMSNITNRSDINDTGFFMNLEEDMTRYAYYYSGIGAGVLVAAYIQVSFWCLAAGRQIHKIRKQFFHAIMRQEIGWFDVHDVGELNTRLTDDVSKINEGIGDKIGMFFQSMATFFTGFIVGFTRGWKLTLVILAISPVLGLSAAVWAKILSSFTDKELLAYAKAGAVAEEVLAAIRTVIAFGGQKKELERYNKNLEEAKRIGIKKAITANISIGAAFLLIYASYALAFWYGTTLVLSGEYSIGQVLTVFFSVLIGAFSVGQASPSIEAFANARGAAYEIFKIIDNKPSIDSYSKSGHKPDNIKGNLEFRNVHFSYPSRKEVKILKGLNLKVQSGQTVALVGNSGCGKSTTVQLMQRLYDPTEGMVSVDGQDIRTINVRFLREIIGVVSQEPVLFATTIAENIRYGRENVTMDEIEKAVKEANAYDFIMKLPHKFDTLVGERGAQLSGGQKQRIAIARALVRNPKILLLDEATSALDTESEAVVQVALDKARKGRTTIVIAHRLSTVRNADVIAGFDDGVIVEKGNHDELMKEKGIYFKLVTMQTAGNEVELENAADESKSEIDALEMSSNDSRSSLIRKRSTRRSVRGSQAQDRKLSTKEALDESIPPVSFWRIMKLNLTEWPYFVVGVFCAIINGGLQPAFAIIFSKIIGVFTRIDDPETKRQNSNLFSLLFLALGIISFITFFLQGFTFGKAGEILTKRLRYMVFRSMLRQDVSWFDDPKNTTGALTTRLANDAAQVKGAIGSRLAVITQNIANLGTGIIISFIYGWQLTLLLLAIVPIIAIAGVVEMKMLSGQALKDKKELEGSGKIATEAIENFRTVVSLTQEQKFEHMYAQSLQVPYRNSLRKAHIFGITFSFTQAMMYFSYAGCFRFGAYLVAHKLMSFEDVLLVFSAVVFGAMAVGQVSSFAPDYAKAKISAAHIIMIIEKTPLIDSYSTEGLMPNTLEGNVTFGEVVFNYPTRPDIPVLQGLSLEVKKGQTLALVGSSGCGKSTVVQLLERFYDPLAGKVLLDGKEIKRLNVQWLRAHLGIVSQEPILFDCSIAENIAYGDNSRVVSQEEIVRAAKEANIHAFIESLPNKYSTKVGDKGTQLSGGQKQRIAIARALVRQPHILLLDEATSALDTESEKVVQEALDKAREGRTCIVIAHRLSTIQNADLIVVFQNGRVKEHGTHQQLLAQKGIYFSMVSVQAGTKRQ
Method: (§1) To establish an MDCK transgenic cell line that can stably express human ABCB1 and BCRP and to identify whether it is suitable for drug delivery experiments, lentivirus shuttle plasmids pLVX-CMV-ABCB1 and pLVX-CMV-BCRP and their auxiliary packaging plasmids PSPAX2 and PMD2G, were extracted with high purity and free of endotoxin, respectively. 293T cells were transfected with Lipofectamine™ 3000 transfection reagent, and the medium was changed 6 h after transfection. After culturing for 24 and 48 h, the cell supernatants, rich in lentivirus particles, were collected and concentrated by ultracentrifugation. Before lentivirus transfection for 18–24 h, adherent MDCK cells were spread on 24-well plates at a density of 1 × 10^5/well. The number of cells transfected with lentivirus was approximately 2 × 10^5/well. The next day, the original medium was replaced with 2 ml of fresh medium containing 6 μg/ml polybrene, and then an appropriate amount of virus suspension; the plates were incubated at 37°C. After 4 h, 2 ml of fresh medium was added to dilute polybrene. The cells were cultured for another 24 h, and the medium containing virus was replaced with fresh medium. After 3–4 days of transfection, puromycin was added to screen the cell lines stably expressing ABCB1 and BCRP.
(§2) MDCK, ABCB1-MDCK, and BCRP-MDCK cells were inoculated in Tmur75 culture bottles with high-glucose DMEM. The cells were counted using a cell counter, the cell density was adjusted to 2.0 × 10^5 cells/ml, and the cells were inoculated in 12-well transwell plates [1.13 cm^2 insert area, 0.4 µm pore size (Corning Life Sciences, New York, NY, United States)]. Thereafter, 0.5 ml of cell suspension was added to the villous surface of each hole (AP side) and 1.5 ml of blank culture medium was added to the basal surface (BL side). After 24 h of culture in the incubator, the fresh culture medium was changed on both AP and BL sides, and the medium was changed every day for 3–5 days. In this experiment, transmembrane resistance was used to evaluate the compactness and integrity of the cell model. When the transmembrane resistance (TEER) is greater than 300 Ω cm^2, the cell monolayer is considered dense and intact. The higher the TEER value, the tighter the monolayer connection. The TEER of monolayer cells was calculated using the following formula: TEER = (R - Rb) × A; where, R is the resistance of the well inoculated with cells, Rb is the blank well without cell inoculation, and A is the membrane area of the polycarbonate membrane.
(§3) Before the transport experiment, the cell monolayer was washed with blank HBSS solution at 37°C three times, and then placed in a CO2 incubator and balanced with HBSS solution for 30 min at 37°C. The transport of the AP→BL side: 0.5 ml of the test solution was added to the AP side as the supply pool, whereas 1.5 ml of blank HBSS solution was added to the BL side as the receiving pool. Before sampling, 0.1 ml of the sample was collected from the BL side in the centrifuge tube, and after sampling, 0.1 ml of blank HBSS, transport sample, was added to the BL side to precipitate protein with methanol, and used for liquid chromatography-tandem mass spectrometry (LC-MS) detection. The transport of the BL→AP side: 1.5 ml of the test solution was added to the BL side as the supply pool, whereas 0.5 ml of blank HBSS solution was added to the AP side as the receiving pool. First, 0.1 ml of the sample was collected on the AP side in the centrifuge tube, and then 0.1 ml of HBSS was added to the AP side after sampling. A transport sample was added to the AP side to precipitate the protein with methanol and used for LC-MS detection.
(§4) The protein was precipitated with methanol in 0.1 ml of blank HBSS, transport sample, and used for LC-MS detection. Drug absorption was determined by LC-MS/MS.

BCRP = molecular target: T2, BCRP (Homo sapiens, UniProt Q9UNQ0); assay: Bidirectional transport across BCRP-MDCK monolayers; type: in vitro ADME; conditions: for BCRP transporter substrate assessment: criterion ER >2, BCRP-MDCK vs MDCK
T2 construct: expressed in transfected cells; host or cells: MDCK (canine kidney) cells transduced with lentivirus from pLVX-CMV-BCRP
T2 sequence (Q9UNQ0 1-655): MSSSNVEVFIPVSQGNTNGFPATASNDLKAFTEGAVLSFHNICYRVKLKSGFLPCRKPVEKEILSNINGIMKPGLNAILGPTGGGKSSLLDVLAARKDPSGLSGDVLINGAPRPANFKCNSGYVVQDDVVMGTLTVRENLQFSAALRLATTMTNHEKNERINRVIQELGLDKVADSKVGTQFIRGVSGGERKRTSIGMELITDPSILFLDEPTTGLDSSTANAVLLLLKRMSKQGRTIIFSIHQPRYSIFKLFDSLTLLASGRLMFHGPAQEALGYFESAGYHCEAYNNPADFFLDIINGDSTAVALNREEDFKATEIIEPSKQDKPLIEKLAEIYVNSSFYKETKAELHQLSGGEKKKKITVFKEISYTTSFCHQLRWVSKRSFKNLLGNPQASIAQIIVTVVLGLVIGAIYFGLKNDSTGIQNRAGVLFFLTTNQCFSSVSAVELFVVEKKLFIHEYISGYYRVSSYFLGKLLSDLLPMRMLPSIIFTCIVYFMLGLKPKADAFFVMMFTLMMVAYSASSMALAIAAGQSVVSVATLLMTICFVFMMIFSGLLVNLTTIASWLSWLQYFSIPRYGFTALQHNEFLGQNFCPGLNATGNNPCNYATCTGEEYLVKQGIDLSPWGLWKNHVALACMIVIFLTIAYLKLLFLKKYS
Method: as §1, §2, §3, §4

[3] = Bidirectional transport across MDCK monolayers; type: in vitro ADME, canine; conditions: dog, read-out: efflux ratio (ER)
Method: as §2, §3, §4

[4] = test system: EGFR 19del mutant lung adenocarcinoma and brain metastases; assay: Clinical case study, EGFR 19del lung adenocarcinoma with brain metastases; type: in vivo, human; conditions: one patient
Method: Herein, we present details of a clinical case study. In this case, brain metastases were recorded at the beginning of the study, and almonertinib was administered for several weeks to allow magnetic resonance imaging of the brain to observe the progression of the disease. Written informed consent was obtained from the patient. The work has been carried out in accordance with The Code of Ethics of the World Medical Association (Declaration of Helsinki).

[5] = molecular target: EGFR T790M mutant protein (Homo sapiens, UniProt P00533, T790M); assay: biochemical
EGFR T790M mutant protein, sequence (P00533 25-1210 T790M): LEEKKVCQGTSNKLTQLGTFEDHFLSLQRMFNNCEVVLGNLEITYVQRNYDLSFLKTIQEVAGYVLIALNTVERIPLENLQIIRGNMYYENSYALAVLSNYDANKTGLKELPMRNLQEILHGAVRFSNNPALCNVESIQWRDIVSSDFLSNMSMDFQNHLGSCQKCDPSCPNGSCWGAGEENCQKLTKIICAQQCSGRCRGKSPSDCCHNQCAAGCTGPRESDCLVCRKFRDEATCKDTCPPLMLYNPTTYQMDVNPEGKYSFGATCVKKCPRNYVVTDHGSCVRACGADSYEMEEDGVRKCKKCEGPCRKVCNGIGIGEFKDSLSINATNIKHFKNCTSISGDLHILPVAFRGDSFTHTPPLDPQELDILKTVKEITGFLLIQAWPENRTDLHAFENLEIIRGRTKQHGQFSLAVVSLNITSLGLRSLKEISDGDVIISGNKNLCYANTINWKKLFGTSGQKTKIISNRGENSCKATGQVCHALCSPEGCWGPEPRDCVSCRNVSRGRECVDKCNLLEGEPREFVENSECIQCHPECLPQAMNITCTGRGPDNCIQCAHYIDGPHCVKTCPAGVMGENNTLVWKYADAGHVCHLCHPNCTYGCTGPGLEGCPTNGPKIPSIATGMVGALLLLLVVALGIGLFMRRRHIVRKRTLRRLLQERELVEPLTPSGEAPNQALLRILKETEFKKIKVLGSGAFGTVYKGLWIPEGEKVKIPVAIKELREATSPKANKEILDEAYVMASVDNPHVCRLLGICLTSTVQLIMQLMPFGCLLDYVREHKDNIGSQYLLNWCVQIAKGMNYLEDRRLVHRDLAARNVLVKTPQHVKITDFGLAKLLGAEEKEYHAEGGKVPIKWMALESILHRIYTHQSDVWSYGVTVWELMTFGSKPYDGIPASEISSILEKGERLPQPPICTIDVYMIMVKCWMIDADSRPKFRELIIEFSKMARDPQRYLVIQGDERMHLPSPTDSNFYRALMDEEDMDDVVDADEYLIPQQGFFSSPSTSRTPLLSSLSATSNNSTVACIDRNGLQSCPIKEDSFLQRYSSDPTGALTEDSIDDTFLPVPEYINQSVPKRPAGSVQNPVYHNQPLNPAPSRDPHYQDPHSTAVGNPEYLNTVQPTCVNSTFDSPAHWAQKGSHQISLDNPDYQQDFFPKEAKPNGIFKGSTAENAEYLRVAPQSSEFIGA

[6] = Mouse pharmacokinetic study, plasma and brain by LC-MS
[7] = test system: EGFR-mutated NSCLC brain metastases; set-up: method as in Liu et al., 2020; conditions: patients, ref Liu et al., 2020; cited from earlier work
[8] = set-up: method as in Mok et al., 2017; conditions: metabolite of osimertinib; ref Mok et al., 2017; cited from earlier work
[9] = set-up: method as in Mok et al., 2017; conditions: AURA3; ref Mok et al., 2017; cited from earlier work
MDCK cell monolayers = assay: Bidirectional transport across MDCK monolayers; type: in vitro ADME, canine
Method: as §2, §3, §4

[10] = mouse, in vivo, po, 25 mg/kg
[11] = female, BALB/c nude, mouse, brain, po, 25 mg/kg
[12] = female, BALB/c nude, mouse, plasma, po, 25 mg/kg
[13] = brain metastasis model, 25 mg/kg once daily

SMILES: C=CC(=O)Nc1cc(Nc2nccc(-c3cn(C4CC4)c4ccccc34)n2)c(OC)cc1N(C)CCN(C)C [almonertinib]
neurological function (sticky dot test, vertical test) ([1]; 25 mg/kg, vs control group): significant improvement in neurological function | growth of intracranial tumors (bioluminescence) [1]: effectively inhibited the growth of intracranial tumors | number of proliferative cells (Ki-67, histological analysis of brain tissue) ([1]; brain metastasis model): significantly decreased | body weight of mice ([1]; brain metastasis model): decreased after administration | overall survival time of mice ([1]; brain metastasis model, 10 and 25 mg/kg, 60 days): longer than that of mice in the osimertinib group | tumor growth / regression ([2]; 5 mg/kg, spinal cord metastatic mice): can inhibit tumor growth but cannot cause tumor regression | biofluorescence signal of intracranial and spinal cord tumors ([2]; high-dose group (25 mg/kg Qd)): significantly reduced | proliferation of tumor cells (H&E and Ki-67 staining of spinal cord) ([2]; high-dose group (25 mg/kg)): significant inhibition in the proliferation of tumor cells | biofluorescence signal of intracranial and spinal cord tumors ([2]; low-dose group (5 mg/kg Qd)): did not change significantly | survival time ([2]; spinal cord metastasis model, vs osimertinib-administered group): longer survival time | ABCB1 transporter substrate assessment (ABCB1): ABCB1 and BCRP transporter substrates | efflux ratio at 1 μM (ABCB1; human, MDCK-MDR1, ABCB1-MDCK, 1 μM, read-out: efflux ratio (ER)): 5.2 | efflux ratio at 10 μM (ABCB1; human, MDCK-MDR1, ABCB1-MDCK, 10 μM, read-out: efflux ratio (ER)): 2.75 | efflux ratio at 20 μM (ABCB1; human, MDCK-MDR1, ABCB1-MDCK, 20 μM, read-out: efflux ratio (ER)): 1.84 | BCRP transporter substrate assessment (BCRP): ABCB1 and BCRP transporter substrates | efflux ratio at 1 μM (BCRP; human, BCRP-MDCK, 1 μM, read-out: efflux ratio (ER)): 4.62 | efflux ratio at 10 μM (BCRP; human, BCRP-MDCK, 10 μM, read-out: efflux ratio (ER)): 2.51 | efflux ratio at 20 μM (BCRP; human, BCRP-MDCK, 20 μM, read-out: efflux ratio (ER)): 1.53 | efflux ratio at 1 μM ([3]; 1 μM): 1.1 | efflux ratio at 10 μM ([3]; 10 μM): 1.42 | efflux ratio at 20 μM ([3]; 20 μM): 1.02 | intracranial tumor response ([4]; 110 mg po qd first-line, after 8 weeks): partially responded | abnormalities during treatment ([4]; 110 mg po qd): no other abnormalities | Kd [5]: 11.1 µM | detectability in plasma and brain tissue ([6]; 24 h after 25 mg/kg oral): could still be detected | BBB penetration ([6]; PC9-LUC BM xenograft mice, almonertinib 25 mg/kg oral): excellent BBB penetration | tmax ([6]; brain, almonertinib 25 mg/kg oral): 2 h | AUC(0-t) [6, 11]: 30.6 µM·h | Cmax [6, 11]: 5.36 µM | MRT last [6, 11]: 6.19 h | Kp ([6]; female, BALB/c nude, mouse, brain/plasma, po, 25 mg/kg): 1.82 | AUC(0-t) [6, 12]: 16.9 µM·h | Cmax [6, 12]: 6.41 µM | MRT last [6, 12]: 5.42 h | tmax ([6]; female, BALB/c nude, mouse, plasma, po, 25 mg/kg, tmax, almonertinib 25 mg/kg oral): 0.5 h

SMILES: C#Cc1cccc(Nc2ncnc3cc4c(cc23)OCCOCCOCCO4)c1 [icotinib]
median intracranial progression free survival (PFS) [7]: 8.4 months

SMILES: C=CC(=O)Nc1cc(Nc2nccc(-c3c[nH]c4ccccc34)n2)c(OC)cc1N(C)CCN(C)C [AZ5104]
concentration of active metabolite in the human body [8]: ~10%

skin of mice [1, 13]: appeared to be keratinized | weight loss [1, 13]: more obvious
SMILES: C=CC(=O)Nc1cc(Nc2nccc(-c3cn(C)c4ccccc34)n2)c(OC)cc1N(C)CCN(C)C [osimertinib]
growth of intracranial tumors (bioluminescence) [1]: effectively inhibited the growth of intracranial tumors | body weight of mice ([1]; brain metastasis model): decreased after administration | biofluorescence signal of intracranial and spinal cord tumors ([2]; high-dose group (25 mg/kg Qd)): significantly reduced | biofluorescence signal of intracranial and spinal cord tumors ([2]; low-dose group (5 mg/kg Qd)): did not change significantly | grade 1 and 2 diarrhea, patients affected [9]: 41% | grade 1 and 2 rashes, patients affected [9]: 34%

SMILES: C=CC(=O)Nc1cc(Nc2nccc(-c3cn(C4CC4)c4ccccc34)n2)c(OC)cc1N(C)CCNC [HAS-719]
efflux ratio (ER) (ABCB1; ABCB1-MDCK, 1 μM): 29.83 | efflux ratio (ER) (ABCB1; ABCB1-MDCK, 10 μM): 12.26 | efflux ratio (ER) (ABCB1; ABCB1-MDCK, 20 μM): 5.5 | ABCB1 transporter substrate assessment (ABCB1): ABCB1 and BCRP transporter substrates | efflux ratio (ER) (BCRP; BCRP-MDCK, 1 μM): 11.59 | efflux ratio (ER) (BCRP; BCRP-MDCK, 10 μM): 5.07 | efflux ratio (ER) (BCRP; BCRP-MDCK, 20 μM): 2.49 | BCRP transporter substrate assessment (BCRP): ABCB1 and BCRP transporter substrates | efflux ratio (ER) (MDCK cell monolayers; 1 μM): 2.81 | efflux ratio (ER) (MDCK cell monolayers; 10 μM): 1.61 | efflux ratio (ER) (MDCK cell monolayers; 20 μM): 1.62 | Tissue/plasma AUC ratio [10]: 0.21
